From patent US20240199546A1, “INHIBITORS OF SOLUTE CARRIER FAMILY 6A MEMBER 19 (SLC6A19) AND METHODS OF USE THEREOF” (Maze Therapeutics, Inc., priority 2022, published 2024)

These compounds were tested against T1, human SLC6A19 and TMEM27 (Homo sapiens, UniProt Q695T7) (assay: 13C6,15N-isoleucine uptake in CHO cells with doxycycline-inducible expression of human SLC6A19 and TMEM27, RapidFire mass spectrometry (Example B-2)). Conditions: read-out: SLC6A19_RapidFire Uptake Assay IC50.
T1 construct: expressed in transfected cells
T1 sequence (Q695T7 1-634): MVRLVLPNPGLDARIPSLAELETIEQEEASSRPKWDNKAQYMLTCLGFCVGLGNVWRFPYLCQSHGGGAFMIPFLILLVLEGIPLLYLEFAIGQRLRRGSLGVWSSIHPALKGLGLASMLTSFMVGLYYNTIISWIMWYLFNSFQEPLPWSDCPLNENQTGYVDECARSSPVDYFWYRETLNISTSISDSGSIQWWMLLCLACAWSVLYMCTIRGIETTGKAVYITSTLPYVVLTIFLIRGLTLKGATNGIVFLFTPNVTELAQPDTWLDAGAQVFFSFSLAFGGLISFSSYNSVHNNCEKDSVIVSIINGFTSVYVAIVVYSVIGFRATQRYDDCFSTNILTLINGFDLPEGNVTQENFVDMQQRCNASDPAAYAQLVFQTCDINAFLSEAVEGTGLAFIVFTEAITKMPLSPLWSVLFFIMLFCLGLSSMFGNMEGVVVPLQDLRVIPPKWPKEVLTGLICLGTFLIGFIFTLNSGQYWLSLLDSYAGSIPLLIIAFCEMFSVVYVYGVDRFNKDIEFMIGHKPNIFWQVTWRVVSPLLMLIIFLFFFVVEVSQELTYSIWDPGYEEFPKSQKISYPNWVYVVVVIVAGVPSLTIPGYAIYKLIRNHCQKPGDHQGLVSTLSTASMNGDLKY
T1 sequence (Q9HBJ8 15-222 partner): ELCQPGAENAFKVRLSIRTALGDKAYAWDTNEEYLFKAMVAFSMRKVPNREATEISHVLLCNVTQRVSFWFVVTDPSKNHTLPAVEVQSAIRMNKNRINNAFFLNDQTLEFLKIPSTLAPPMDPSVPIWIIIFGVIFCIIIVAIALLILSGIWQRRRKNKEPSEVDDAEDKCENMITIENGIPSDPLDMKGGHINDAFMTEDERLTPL
Assay type: cell-based
Procedure: Assay ready vials of CHO cells with doxycycline inducible expression of human SLC6A19 and TMEM27 were thawed, plated in T175 flasks containing DMEM/F12 media, 10% FBS, 1% Penicillin-Streptomycin, 1× UltraGlutamate, 1 mM Sodium Pyruvate, Sodium Bicarbonate (7.5 mL of 7.5% solution in 500 mL media final), 5 μg/mL Blasticidin, 150 μg/mL Hygromycin B Gold, and 500 μg/mL G418, and incubated (humidified, 37° C. with 5% CO2) for 48 hours. Media was then removed, flasks were washed with 20 mL of DPBS, and 5 mL of TrypLE™ Express was added to each flask to initiate cell dissociation. After 5 minutes, 10 mL of cell culture media was added to each flask and mixed. The cell suspension was collected and centrifuged for 5 minutes at 200×g. The supernatant was removed, and the pellet was resuspended in 10 mL of cell culture media. Resuspended cells were counted using a Vi-Cell. 30 μL/well (20,000 cells/well) of cell suspension was added to Poly-D-Lysine 384-well black/clear plates. Plates were incubated (humidified, 37° C. with 5% CO2) for 24 hours. To induce expression of human SLC6A19 and TMEM27, 10 μL of assay culture media containing 4 μg/mL doxycycline was added to each well. Assay plates were then incubated (humidified, 37° C. with 5% CO2) overnight. After incubation, the media was removed, and wells were washed 3 times with 40 μL of warmed DPBS. Next, 10 μL of warmed assay buffer (137 mM NaCl, 5 mM KCl, 1 mM CaCl2), 1 mM MgCl2, 10 mM HEPES, 10 mM glucose, pH 7.2) was added to each well. 10 μL/well of test compound or positive control compound to define 0% activity (i.e., 100% inhibition), was then added into each well. All compounds were plated in a duplicate 10-point dilution series that consisted of 2-fold dilutions. The plates were incubated (humidified, 37° C. with 5% C2) with compound for 20 minutes. Afterwards, 20 μL/well of 2 mM 13C6,15N-1-isoleucine was added to each well and plates were incubated again (humidified, 37° C. with 5% C02) for another 20 minutes. Assay buffer was then removed, and plates were washed. 70 μL/well of stop solution (75% acetonitrile, 25% HPLC grade water, 250 nM 1-leucine-1-13C (RapidFire standard)) was added to each well. The plates were sealed and then placed in a −20° C. freezer for 20 minutes. The plates were thawed at room temperature for 20 minutes and then centrifuge for 20 minutes at 3000 rpm. Using an ABSciex API4000 mass spectrometer, processed samples were loaded onto the graphitic carbon SPE-column. The time for aspiration, load/wash, elution and re-equilibration time was 600, 1500, 3000 and 500 milliseconds, respectively. Peak areas were calculated using RapidFire Integrator software.
For `CC1(C(=O)NCc2cc3ccc(OCc4cncnc4)cc3[nH]2)CC1` [Compound 52, 1-methyl-N-((6-(pyrimidin-5-ylmethoxy)-1H-indol-2-yl)methyl)cyclopropane-1-carboxamide], the IC50 was 2110 nM. `CC1(C(=O)NCc2cc3cc(Cl)c(OCc4ccsn4)cc3[nH]2)CC1` [Compound 38, N-((5-chloro-6-(isothiazol-3-ylmethoxy)-1H-indol-2-yl)methyl)-1-methylcyclopropane-1-carboxamide] gave an IC50 of 44 nM. `Cc1cc(COc2ccc3cc(CNC(=O)C4(C)CC4)[nH]c3c2)on1` [Compound 181, 1-methyl-N-((6-((3-methylisoxazol-5-yl)methoxy)-1H-indol-2-yl)methyl)cyclopropane-1-carboxamide] showed an IC50 of 183 nM. Work on `Cc1cc(Oc2ccc3cc(CNC(=O)C4(C)CC4)[nH]c3c2)no1` [Compound 78, 1-methyl-N-((6-((5-methylisoxazol-3-yl)oxy)-1H-indol-2-yl)methyl)cyclopropanecarboxamide] yielded an IC50 of 5180 nM. With `CC1(C(=O)NCc2cc3ccc(OCc4nncs4)cc3[nH]2)CC1` [Compound 171, N-((6-((1,3,4-thiadiazol-2-yl)methoxy)-1H-indol-2-yl)methyl)-1-methylcyclopropane-1-carboxamide] the IC50 was 1730 nM. With `CC1(C(=O)NCc2cc3cc(F)c(OCc4cncs4)cc3[nH]2)CC1` [Compound 9, N-((5-fluoro-6-(thiazol-5-ylmethoxy)-1H-indol-2-yl)methyl)-1-methylcyclopropane-1-carboxamide] the IC50 was 271 nM. Compound `Cc1ccc(COc2cc3[nH]c(CNC(=O)C4(C)CC4)cc3cc2Cl)cn1` [Compound 37, N-((5-chloro-6-((6-methylpyridin-3-yl)methoxy)-1H-indol-2-yl)methyl)-1-methylcyclopropane-1-carboxamide] has an IC50 of 625 nM. In the case of `Cc1ncc(COc2cc3[nH]c(CNC(=O)C4(C)CC4)cc3cc2Cl)s1` [Compound 176, N-((5-chloro-6-((2-methylthiazol-5-yl)methoxy)-1H-indol-2-yl)methyl)-1-methylcyclopropane-1-carboxamide], the IC50 is reported as 528 nM. With `Cc1ncc(COc2ccc3cc(CNC(=O)C4(C)CC4)[nH]c3c2)s1` [Compound 178, 1-methyl-N-((6-((2-methylthiazol-5-yl)methoxy)-1H-indol-2-yl)methyl)cyclopropane-1-carboxamide] the IC50 was 511 nM. `CCC(=O)NCc1cc2ccc(OCc3cc(C)on3)cc2[nH]1` [Compound 47, N-((6-((5-methylisoxazol-3-yl)methoxy)-1H-indol-2-yl)methyl)propionamide] showed an IC50 of 698 nM. Compound `CC1(C(=O)NCc2cc3ccc(OCc4ccncn4)cc3[nH]2)CC1` [Compound 53, 1-methyl-N-((6-(pyrimidin-4-ylmethoxy)-1H-indol-2-yl)methyl)cyclopropane-1-carboxamide] has an IC50 of 4820 nM. Compound `Cc1noc(COc2ccc3cc(CNC(=O)C4(C)CC4)[nH]c3c2)n1` [Compound 169, 1-methyl-N-((6-((3-methyl-1,2,4-oxadiazol-5-yl)methoxy)-1H-indol-2-yl)methyl)cyclopropane-1-carboxamide] has an IC50 of 83 nM. Work on `CC1(C(=O)NCc2cc3ccc(OCc4ncccn4)cc3[nH]2)CC1` [Compound 51, 1-methyl-N-((6-(pyrimidin-2-ylmethoxy)-1H-indol-2-yl)methyl)cyclopropane-1-carboxamide] yielded an IC50 of 4390 nM. `CC1(C(=O)NCc2cc3ccc(OCc4cocn4)cc3[nH]2)CC1` [Compound 49, 1-methyl-N-((6-(oxazol-4-ylmethoxy)-1H-indol-2-yl)methyl)cyclopropane-1-carboxamide] showed an IC50 of 412 nM. Compound `Cc1cc(COc2ccc3cc(CNC(=O)C4(C)CC4)[nH]c3c2)no1` [Compound 50, 1-methyl-N-((6-((5-methylisoxazol-3-yl)methoxy)-1H-indol-2-yl)methyl)cyclopropane-1-carboxamide] has an IC50 of 193 nM. With `CC1(C(=O)NCc2cc3ccc(OCc4cscn4)cc3[nH]2)CC1` [Compound 164, 1-methyl-N-((6-(thiazol-4-ylmethoxy)-1H-indol-2-yl)methyl)cyclopropane-1-carboxamide] the IC50 was 98 nM. `CC1(C(=O)NCc2cc3ccc(NCc4ccccc4)cc3[nH]2)CC1` [Compound 3, N-((6-(benzylamino)-1H-indol-2-yl)methyl)-1-methylcyclopropanecarboxamide] was tested, and the IC50 was 504 nM. Work on `CC1(C(=O)NCc2cc3ccc(OCc4cccnc4)cc3[nH]2)CC1` [Compound 55, 1-methyl-N-((6-(pyridin-3-ylmethoxy)-1H-indol-2-yl)methyl)cyclopropane-1-carboxamide] yielded an IC50 of 427 nM. With `CCC(=O)NCc1cc2ccc(NCc3ccccc3)cc2[nH]1` [Compound 1, N-((6-(benzylamino)-1H-indol-2-yl)methyl)propionamide] the IC50 was 5540 nM. `CC1(C(=O)NCc2cc3ccc(OCc4ccccc4)cc3[nH]2)CC1` [Compound 5, N-((6-(benzyloxy)-1H-indol-2-yl)methyl)-1-methylcyclopropanecarboxamide] gave an IC50 of 53 nM. For `O=C(NCc1cc2ccc(OCc3ccon3)cc2[nH]1)N1CCCC1` [Compound 104, N-((6-(isoxazol-3-ylmethoxy)-1H-indol-2-yl)methyl)pyrrolidine-1-carboxamide], the IC50 was 452 nM. In the case of `CC1(C(=O)NCc2cc3ccc(CCc4ccon4)cc3[nH]2)CC1` [Compound 75, N-((6-(2-(isoxazol-3-yl)ethyl)-1H-indol-2-yl)methyl)-1-methylcyclopropanecarboxamide], the IC50 is reported as 464 nM. Work on `CC1(C(=O)NCc2cc3cc(Cl)c(Cc4ccon4)cc3[nH]2)CC1` [Compound 159, N-((5-chloro-6-(isoxazol-3-ylmethyl)-1H-indol-2-yl)methyl)-1-methylcyclopropanecarboxamide] yielded an IC50 of 493 nM. `CC1(C(=O)NCc2cc3ccc(OCc4ccc(Cl)cc4)cc3[nH]2)CC1` [Compound 44, N-((6-((4-chlorobenzyl)oxy)-1H-indol-2-yl)methyl)-1-methylcyclopropane-1-carboxamide] was tested, and the IC50 was 838 nM. In the case of `Cc1c(CNC(=O)C2(C)CC2)[nH]c2cc(OCc3ccccc3)ccc12` [Compound 156, N-((6-(benzyloxy)-3-methyl-1H-indol-2-yl)methyl)-1-methylcyclopropane-1-carboxamide], the IC50 is reported as 198 nM. `CC1(C(=O)NCc2[nH]c3cc(OCc4ccon4)ccc3c2Cl)CC1` [Compound 157, N-((3-chloro-6-(isoxazol-3-ylmethoxy)-1H-indol-2-yl)methyl)-1-methylcyclopropane-1-carboxamide] was tested, and the IC50 was 43 nM. Compound `Cc1cc2cc(CNC(=O)C3(C)CC3)[nH]c2cc1OCc1ccon1` [Compound 10, N-((6-(isoxazol-3-ylmethoxy)-5-methyl-1H-indol-2-yl)methyl)-1-methylcyclopropane-1-carboxamide] has an IC50 of 130 nM. For `Cc1nnc(COc2ccc3cc(CNC(=O)C4(C)CC4)[nH]c3c2)o1` [Compound 167, 1-methyl-N-((6-((5-methyl-1,3,4-oxadiazol-2-yl)methoxy)-1H-indol-2-yl)methyl)cyclopropane-1-carboxamide], the IC50 was 7500 nM.
